Source: patent publication US6737383B1, “Herbicidal oxadiazolidines” (priority 1999, dated 2004)

Assays:
[1] = tested on: purple nutsedge; assay: Test B pre/postemergence purple nutsedge; assay type: in vivo, Cyperus rotundus; settings: for Nutsedge plant response rating: scale of 0 to 10 where 0 is no effect and 10 is complete control
Summary of the method: (§1)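 Herbicidal effect was estimated by eye on a ten-point control scale after plants spent twelve to sixteen days in a greenhouse following soil or foliar treatment. Foliar sprays targeted plants at one to four leaves; all doses were formulated in a non-phytotoxic solvent with surfactant.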

[2] = tested on: surinam grass; assay: Test B pre/postemergence surinam grass; assay type: in vivo, Brachiaria decumbens
Summary of the method: as §1

[3] = tested on: corn; assay: Test B pre/postemergence corn; assay type: in vivo, Zea mays; settings: for Corn plant response rating: scale of 0 to 10 where 0 is no effect and 10 is complete control
Summary of the method: as §1

[4] = tested on: velvetleaf; assay: Test B pre/postemergence velvetleaf; assay type: in vivo, Abutilon theophrasti; settings: for Velvetleaf plant response rating: scale of 0 to 10 where 0 is no effect and 10 is complete control
Summary of the method: as §1

[5] = tested on: bamyardgrass; assay: Test B flood test barnyardgrass; assay type: in vivo, Echinochloa crus-galli
Summary of the method: (§2)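 Flood test on plants grown to the 2-leaf stage; treated plants kept in greenhouse twelve to sixteen days, then visually rated against controls on a 0 (no effect) to 10 (complete control) scale.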

[6] = tested on: bedstraw; assay: Test B pre/postemergence bedstraw; assay type: in vivo, Galium aparine; settings: Postemergence
Summary of the method: as §1

[7] = tested on: rape; assay: Test B pre/postemergence rape; assay type: in vivo, Brassica napus; settings: for Rape plant response rating: scale of 0 to 10 where 0 is no effect and 10 is complete control
Summary of the method: as §1

[8] = tested on: giant foxtail; assay: Test B pre/postemergence giant foxtail; assay type: in vivo, Setaria faberii; settings: for Giant foxtail plant response rating: scale of 0 to 10 where 0 is no effect and 10 is complete control
Summary of the method: as §1

[9] = tested on: smallflower flatsedge; assay: Test B flood test smallflower flatsedge; assay type: in vivo, Cyperus difformis
Summary of the method: as §2

[10] = tested on: pigweed; assay: Test B pre/postemergence pigweed; assay type: in vivo, Amaranthus retroflexus; settings: for Redroot pigweed plant response rating: scale of 0 to 10 where 0 is no effect and 10 is complete control
Summary of the method: as §1

[11] = tested on: soybean; assay: Test B pre/postemergence soybean; assay type: in vivo, Glycine max; settings: for Soybean plant response rating: scale of 0 to 10 where 0 is no effect and 10 is complete control
Summary of the method: as §1

[12] = tested on: rice; assay: Test B flood test rice; assay type: in vivo, Oryza sativa
Summary of the method: as §2

[13] = tested on: morningglory; assay: Test B pre/postemergence morningglory; assay type: in vivo, Ipomoea hederacea; settings: for Morningglory plant response rating: scale of 0 to 10 where 0 is no effect and 10 is complete control
Summary of the method: as §1

[14] = tested on: duck salad; assay: Test B flood test duck salad; assay type: in vivo, Heteranthera limosa
Summary of the method: as §2

[15] = tested on: blackgrass; assay: Test B pre/postemergence blackgrass; assay type: in vivo, Alopecurus myosuroides
Summary of the method: as §1

[16] = tested on: sugar beet; assay: Test B pre/postemergence sugar beet; assay type: in vivo, Beta vulgaris; settings: for Sugarbeets plant response rating: scale of 0 to 10 where 0 is no effect and 10 is complete control
Summary of the method: as §1

[17] = Postemergence, Rate 125 g/ha, scale 0 to 10, 0 is no effect, 10 is complete control
[18] = Preemergence, Rate 62 g/ha, scale 0 to 10 (0 no effect, 10 complete control)
[19] = Rate 500 g/ha, Postemergence, scale 0 to 10, 0 no effect, 10 complete control
[20] = Preemergence, Rate 500 g/ha, scale of 0 to 10 where 0 is no effect and 10 is complete control
[21] = Rate 62 g/ha, Postemergence, scale of 0 to 10 where 0 is no effect and 10 is complete control
[22] = Rate 250 g/ha, Postemergence, scale of 0 to 10 where 0 is no effect and 10 is complete control
[23] = Postemergence (flood test), Rate 125 g/ha, scale 0 to 10, 0 is no effect, 10 is complete control
[24] = Rate 62 g/ha, Postemergence (flood test species), scale of 0 to 10 where 0 is no effect and 10 is complete control
[25] = Rate 500 g/ha, listed under Postemergence (flood test species), scale 0 to 10, 0 no effect, 10 complete control

Compound: CC(C)N(C(=O)n1oc(=O)n(C2CCC2)c1=O)c1ccc(Cl)cc1 [Compound 349]
- Plant response rating, Nutsedge [1, 17]: 0
- Plant response rating, Nutsedge [1, 18]: 0
- Nutsedge plant response rating (0 to 10 scale) ([1]; Preemergence, Rate 125 g/ha): 0
- Nutsedge plant response rating ([1]; Preemergence, Rate 250 g/ha): 0
- Nutsedge plant response rating ([1]; Preemergence, Rate 500 g/ha): 0
- Nutsedge plant response rating ([1]; Rate 62 g/ha, Postemergence): 0
- Plant response rating, Nutsedge [1, 19]: 0
- Plant response rating, B. signalgrass [2, 17]: 0
- B. signalgrass plant response rating [2, 20]: 4
- B. signalgrass plant response rating [2, 21]: 0
- Plant response rating, B. signalgrass [2, 22]: 0
- Plant response rating, B. signalgrass [2, 19]: 0
- Plant response rating, Corn [3, 17]: 0
- Plant response rating, Corn [3, 18]: 0
- Corn plant response rating (0 to 10 scale) ([3]; Preemergence, Rate 125 g/ha): 0
- Corn plant response rating ([3]; Preemergence, Rate 250 g/ha): 0
- Corn plant response rating ([3]; Preemergence, Rate 500 g/ha): 2
- Corn plant response rating ([3]; Rate 62 g/ha, Postemergence): 0
- Plant response rating, Corn [3, 19]: 0
- Plant response rating, Velvetleaf [4, 17]: 0
- Plant response rating, Velvetleaf [4, 18]: 0
- Velvetleaf plant response rating (0 to 10 scale) ([4]; Preemergence, Rate 125 g/ha): 0
- Velvetleaf plant response rating ([4]; Preemergence, Rate 250 g/ha): 3
- Velvetleaf plant response rating ([4]; Preemergence, Rate 500 g/ha): 3
- Velvetleaf plant response rating ([4]; Rate 62 g/ha, Postemergence): 0
- Plant response rating, Velvetleaf [4, 19]: 0
- Plant response rating, Barnyardgrass [5, 23]: 2
- Barnyardgrass plant response rating [5, 24]: 2
- Plant response rating, Barnyardgrass ([5]; Rate 250 g/ha, Postemergence (flood test species), scale of 0 to 10 where 0 is no effect and 10 is complete control): 9
- Plant response rating, Barnyardgrass [5, 25]: 9
- Plant response rating, Bedstraw ([6]; Rate 125 g/ha, scale 0 to 10, 0 is no effect, 10 is complete control): 3
- Bedstraw plant response rating ([6]; Rate 62 g/ha, scale of 0 to 10 where 0 is no effect and 10 is complete control): 2
- Plant response rating, Bedstraw ([6]; Rate 500 g/ha, scale 0 to 10, 0 no effect, 10 complete control): 3
- Plant response rating, Rape [7, 17]: 0
- Plant response rating, Rape [7, 18]: 0
- Rape plant response rating (0 to 10 scale) ([7]; Preemergence, Rate 125 g/ha): 0
- Rape plant response rating ([7]; Preemergence, Rate 250 g/ha): 0
- Rape plant response rating ([7]; Preemergence, Rate 500 g/ha): 4
- Rape plant response rating ([7]; Rate 62 g/ha, Postemergence): 0
- Plant response rating, Rape [7, 19]: 0
- Plant response rating, Giant foxtail [8, 17]: 0
- Plant response rating, Giant foxtail [8, 18]: 8
- Giant foxtail plant response rating (0 to 10 scale) ([8]; Preemergence, Rate 125 g/ha): 9
- Giant foxtail plant response rating ([8]; Preemergence, Rate 250 g/ha): 10
- Giant foxtail plant response rating ([8]; Preemergence, Rate 500 g/ha): 10
- Giant foxtail plant response rating ([8]; Rate 62 g/ha, Postemergence): 0
- Plant response rating, Giant foxtail [8, 19]: 9
- Plant response rating, S. Flatsedge [9, 23]: 5
- S. Flatsedge plant response rating [9, 24]: 0
- Plant response rating, Redroot pigweed [10, 17]: 2
- Plant response rating, Redroot pigweed [10, 18]: 0
- Redroot pigweed plant response rating (0 to 10 scale) ([10]; Preemergence, Rate 125 g/ha): 0
- Redroot pigweed plant response rating ([10]; Preemergence, Rate 250 g/ha): 2
- Redroot pigweed plant response rating ([10]; Preemergence, Rate 500 g/ha): 7
- Redroot pigweed plant response rating ([10]; Rate 62 g/ha, Postemergence): 0
- Plant response rating, Redroot pigweed [10, 19]: 4
- Plant response rating, Soybean [11, 17]: 2
- Plant response rating, Soybean [11, 18]: 0
- Soybean plant response rating (0 to 10 scale) ([11]; Preemergence, Rate 125 g/ha): 0
- Soybean plant response rating ([11]; Preemergence, Rate 250 g/ha): 0
- Soybean plant response rating ([11]; Preemergence, Rate 500 g/ha): 0
- Soybean plant response rating ([11]; Rate 62 g/ha, Postemergence): 1
- Plant response rating, Soybean [11, 19]: 2
- Plant response rating, Rice [12, 23]: 0
- Rice plant response rating [12, 24]: 0
- Plant response rating, Rice [12, 25]: 0
- Plant response rating, Morningglory [13, 17]: 5
- Plant response rating, Morningglory [13, 18]: 0
- Morningglory plant response rating (0 to 10 scale) ([13]; Preemergence, Rate 125 g/ha): 0
- Morningglory plant response rating ([13]; Preemergence, Rate 250 g/ha): 0
- Morningglory plant response rating ([13]; Preemergence, Rate 500 g/ha): 0
- Morningglory plant response rating ([13]; Rate 62 g/ha, Postemergence): 5
- Plant response rating, Morningglory [13, 19]: 10
- Plant response rating, Ducksalad [14, 23]: 0
- Ducksalad plant response rating [14, 24]: 0
- Plant response rating, Ducksalad [14, 25]: 4
- Plant response rating, Blackgrass [15, 17]: 4
- Plant response rating, Blackgrass [15, 18]: 2
- Blackgrass plant response rating (0 to 10 scale) ([15]; Preemergence, Rate 125 g/ha): 2
- Blackgrass plant response rating ([15]; Preemergence, Rate 250 g/ha, scale of 0 to 10 where 0 is no effect and 10 is complete control): 4
- Blackgrass plant response rating [15, 20]: 4
- Blackgrass plant response rating [15, 21]: 1
- Plant response rating, Blackgrass [15, 22]: 4
- Plant response rating, Blackgrass [15, 19]: 6
- Plant response rating, Sugarbeets [16, 17]: 0
- Plant response rating, Sugarbeets [16, 18]: 0
- Sugarbeets plant response rating (0 to 10 scale) ([16]; Preemergence, Rate 125 g/ha): 2
- Sugarbeets plant response rating ([16]; Preemergence, Rate 250 g/ha): 4
- Sugarbeets plant response rating ([16]; Preemergence, Rate 500 g/ha): 4
- Sugarbeets plant response rating ([16]; Rate 62 g/ha, Postemergence): 0
- Plant response rating, Sugarbeets [16, 19]: 0
